Measured values: patent US20250186540A1, “VIPR2 ANTAGONIST PEPTIDE FOR SUPPRESSING CANCER METASTASIS” (ICHIMARU PHARCOS CO., LTD., priority 2022, published 2025)
Positions of bridges follow the written chain, without caps; N, C: chain ends.

Tests used:
[1] = system: MCF-7 cells overexpressing VIPR2-EGFP; experiment: Cell proliferation test with KS-133; assay type: cell-based; details: for Number of cells (mean value): 100 nM KS-133, 100 nM VIP, 2% FBS
Description: This effect was confirmed. The cell proliferation test was performed according to NON-PATENT DOCUMENT 3. MCF-7 cells overexpressing VIPR2-EGFP were seeded in a 35 mm culture dish at a density of 1×10^5 cells/dish for 6 hours, and the culture medium was replaced with a fresh medium containing 2% FBS, 100 nM VIP, and 0 nM or 100 nM KS-133 (day 0). Cells were observed under a BZ-X800 fluorescence microscope (Keyence, Kyoto, Japan) and the number of cells was counted every 24 hours for up to 4 days by trypan blue dye staining using a hemacytometer (timecourse experiment).

[2] = system: MDA-MB-231 breast cancer cells stably expressing VIPR2-EGFP; experiment: Transwell migration test with KS-133; assay type: cell-based
Description: (§1) In addition, the measurement was performed according to the method described above (Asano et al. 2012, Mol. Cell Biol. 32, 3242-3252) using a Boyden chamber. To each well, 600 μL of a serum-free culture solution containing 200 nM VIP was added. Cells (1×10^4 cells) were suspended in 100 μL of a serum-free culture solution and added to the insert. The cells were allowed to migrate for 30 or 48 hours at 37° C. Non-mobile cells adhering to the upper surface of the membrane were removed, and mobile cells adhering to the lower surface were fixed with 4% paraformaldehyde and counted with a fluorescence microscope.
Using the transwell shown in FIG. 7, the effect of KS-133 on migration of MDA-MB-231 breast cancer cells stably expressing VIPR2-EGFP was examined. MDA-MB-231 cells stably expressing VIPR2-EGFP were suspended in serum-free medium containing KS-133 at each of the concentrations of 0 nM to 1000 nM (1×10^4 cells/100 μL). A serum-free medium 6 containing 200 nM VIP and KS-133 at each of the concentrations was added to each well in an amount of 600 μL, and an insert 3 having 3 μm pores 5 was immersed in the well. Then, the suspended cells 1 were added to the insert 3, and incubated under conditions of 37° C. and 5% CO2. After 48 hours, the cells were fixed, cells on the surface of the insert 3 were removed, and then fluorescence of EGFP of cells 2 that had moved to the rear surface in response to induction by VIP was detected with a fluorescence microscope. The number of the cells that had moved to the rear surface of the insert was graphed based on the fluorescence image.
FIG. 8A is a fluorescence micrograph showing migrated cells. FIG. 8B and Table 2 show the number of migrated cells when each concentration of KS-133 was added.

[3] = system: phosphorylation of AKT in MDA-MB-231 cells stably expressing VIPR2-EGFP; experiment: Phosphorylation of AKT by VIP in the presence and absence of KS-133 (Western blotting); assay type: cell-based
Description: (§2) Western blotting was performed according to a previously described method (Asano et al. 2014, Biol. Open3, 463-474; Asano et al. 2019, Sci. Rep. 9, 12729).
Pathway by VIP in MDA-MB-231 Cells Stably Expressing VIPR2-EGFP>Phosphorylation of AKT by VIP in MDA-MB-231 cells stably expressing VIPR2-EGFP was evaluated in the presence and absence of KS-133.

[4] = system: psychiatric disease model mice; details: NON-PATENT DOCUMENT 2; cited from earlier work
[5] = system: phosphorylation of AKT in MCF-7 cells; experiment: Phosphorylation of AKT on VIP stimulation (Western blotting); assay type: cell-based; details: MCF-7 cells starved 3 hours, 0 nM to 1000 nM VIP for 10 minutes
Description: as §2
To investigate whether VIP is involved in cell movement via the PI3K/PI(3,4,5)P3 pathway, phosphorylation of AKT, a downstream signal of the PI3K/PI(3,4,5)P3 pathway in cancer cells, was assessed by Western blotting. […] All experiments were independently performed at least three times, and similar data were obtained.

[6] = system: MDA-MB-231 cells stably expressing EGFP or VIPR2-EGFP; experiment: Transwell chamber assay of VIP-induced movement; assay type: cell-based; details: 200 nM VIP; 30 hours
Description: as §1
Cells were suspended in serum-free media (1×10^4 cells/[…]). A serum-free medium 6 containing 200 nM VIP was added to each well in an amount of 600 μL, and an insert 3 having 3 μm pores 5 was immersed in the well. […] After 30 hours, cells were fixed, cells on the surface of the insert 3 were removed, and then fluorescence of EGFP of cells 2 that had moved to the rear surface in response to VIP was detected with a fluorescence microscope. The number of the cells that had moved to the rear surface of the insert was graphed based on the fluorescence image. […] VIP (200 nM) was added to the well, the cells were added to the insert and incubated at 37° C. for 30 hours, and cells that had moved to the rear side of the insert were quantified and shown graphically.

[7] = system: MDA-MB-231 cells stably expressing EGFP or VIPR2-EGFP; experiment: WAVE2-rich lamellipodia area after VIP stimulation; assay type: cell-based; details: 100 nM VIP; 30 minutes
Description: MDA-MB-231 cells (2×10^5 cells) stably expressing EGFP or VIPR2-EGFP were seeded on collagen-coated cover glass and incubated under conditions of 37° C. and 5% CO2. After 24 hours, the cells were washed with serum-free medium, and fresh serum-free medium was added to incubate the cells (under conditions of 37° C. and 5% CO2). After 3 hours, the medium was replaced with serum-free medium containing 100 nM VIP, and incubation for 30 minutes was performed. The cells were fixed with 4% paraformaldehyde, and immunostained using an anti-WAVE2 antibody. The surface area of a WAVE2-rich region immediately below the cell membrane was measured from a fluorescently-stained image of the same and graphed.
Data are shown as mean±SD. **: p<0.01, ***: p<0.001, between indicated groups (Kruskal-Wallis test and Dunn's multiple comparison test). “n.s.” indicates not statistically significant. […] The MDA-MB-231 cells stably expressing VIPR2-EGFP had more pronounced area expansion of lamellipodia compared to the control MDA-MB-231 cells expressing EGFP.

Row | Substance | Number of cells (mean value) ([1]; Day 0) | Number of cells (mean value) ([1]; Day 1) | Number of cells (mean value) ([1]; Day 2) | Number of cells (mean value) ([1]; Day 3) | Number of cells (mean value) ([1]; Day 4) | cell proliferation ([1]; MCF-7 cells overexpressing VIPR2, addition of KS-133) | VIP-induced cell migration ([2]; 200 nM VIP, KS-133 0 nM to 1000 nM, 48 hours) | Mean cell count (migrated cells) ([2]; KS-133 30 nM, 200 nM VIP, 48 hours) [Cells/mm^2] | Mean cell count (migrated cells) ([2]; KS-133 100 nM, 200 nM VIP, 48 hours) [Cells/mm^2] | Mean cell count (migrated cells) ([2]; KS-133 300 nM, 200 nM VIP, 48 hours) [Cells/mm^2] | Mean cell count (migrated cells) ([2]; KS-133 1000 nM, 200 nM VIP, 48 hours) [Cells/mm^2] | KS-133 concentration showing a significant difference in migration compared to the absence of KS-133 ([2]; Kruskal-Wallis test and Dunn's multiple comparison test) [nM] | expression of AKT [3] | phosphorylation of AKT induced by VIP ([3]; presence vs absence of KS-133) | cognitive decline [4] | phosphorylation of AKT [5] | number of cells that had moved to the back side of the insert [6] | WAVE2-rich area of lamellipodia [7]
1 | Ac-c[Cys^1-Pro^2-Pro^3-Tyr^4-Leu^5-Pro^6-c(Lys^7-Tyr^8-Leu^9-Cys^10]-Asp^11)-Leu^12-Ile^13-NH2 (Ac-CPPYLPKYLCDLI-NH2; disulfide 1-10; lactam 7-11; SMILES CC[C@H](C)[C@H](NC(=O)[C@H](CC(C)C)NC(=O)[C@@H]1CC(=O)NCCCC[C@@H]2NC(=O)[C@@H]3CCCN3C(=O)[C@H](CC(C)C)NC(=O)[C@H](Cc3ccc(O)cc3)NC(=O)[C@@H]3CCCN3C(=O)[C@@H]3CCCN3C(=O)[C@@H](NC(C)=O)CSSC[C@H](NC(=O)[C@H](CC(C)C)NC(=O)[C@H](Cc3ccc(O)cc3)NC2=O)C(=O)N1)C(N)=O) [KS-133] | 1.0 × 10^5 | 0.85 × 10^5 | 0.65 × 10^5 | 0.45 × 10^5 | 0.2 × 10^5 | significantly suppressed from Day 2 of culture or later | suppressed | 4.35 | 2.08 | 1.39 | 0.78 | ≥ 100 | did not affect the expression of AKT | strongly suppressed phosphorylation of AKT induced by VIP in an addition concentration-dependent manner | suppress cognitive decline |  |  | 
2 | Vasoactive intestinal peptide [VIP] |  |  |  |  |  |  |  |  |  |  |  |  |  |  |  | phosphorylated in a VIP addition concentration-dependent manner | increased | expanded the WAVE2-rich area of lamellipodia
